From PubChem BioAssay AID330 (DTP/NCI, 2004)
Inconclusive results and toxic doses are left out. How the source made its calls: active means survival T/C of 150% or more; inactive means T/C below 125% in these data.

Tested on: P388 leukemia ip, CD2F1 mice, survival T/C
Assay: NCI In Vivo Anticancer Drug Screen. Data for tumor model P388 Leukemia (intraperitoneal) in CD2F1 (CDF1) mice
Conditions: endpoint: median survival time, higher = longer survival
Summary of the method: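 Mice carrying the transplanted tumor received test compound or vehicle. Survival was recorded in each group, and the value is the treated-group measurement divided by that of the vehicle-treated control group.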

[1] = dose: 50.0 mg/kg/injection, schedule: Q01DX009 (ip), vehicle: Klucel (hydroxypropylcellulose) (HPC)
[2] = dose: 100.0 mg/kg/injection, schedule: Q01DX009 (ip), vehicle: Klucel (hydroxypropylcellulose) (HPC)
[3] = dose: 200.0 mg/kg/injection, schedule: Q01DX009 (ip), vehicle: Klucel (hydroxypropylcellulose) (HPC)

Measured: T/C

CC(C)(OC(=O)c1ccc([N+](=O)[O-])cc1)C(=O)O
inactive: [1] 99 % of control | [2] 98 % of control | [3] 98 % of control

CC(CO)/[N+]([O-])=N/O (stereo not given)
inactive: dose: 6.0 mg/kg/injection, schedule: Q01DX005 (ip), vehicle: Klucel (hydroxypropylcellulose) (HPC) 95 % of control | dose: 12.0 mg/kg/injection, schedule: Q01DX005 (ip), vehicle: Klucel (hydroxypropylcellulose) (HPC) 94 % of control | dose: 24.0 mg/kg/injection, schedule: Q01DX005 (ip), vehicle: Klucel (hydroxypropylcellulose) (HPC) 100 % of control | dose: 48.0 mg/kg/injection, schedule: Q01DX005 (ip), vehicle: Klucel (hydroxypropylcellulose) (HPC) 100 % of control

O=c1c2ccccc2c(=O)n2c(=O)c3ccccc3c(=O)n12
inactive: [1] 100 % of control | [2] 100 % of control | [3] 104 % of control | dose: 400.0 mg/kg/injection, schedule: Q01DX009 (ip), vehicle: Klucel (hydroxypropylcellulose) (HPC) 103 % of control

Cc1cc(O)c(C(c2cccnc2)c2c(O)cc(C)[nH]c2=O)c(=O)[nH]1
inactive: dose: 50.0 mg/kg/injection, schedule: Q01DX009 (ip), vehicle: saline with Tween-80 104 % of control | dose: 100.0 mg/kg/injection, schedule: Q01DX009 (ip), vehicle: saline with Tween-80 98 % of control | dose: 200.0 mg/kg/injection, schedule: Q01DX009 (ip), vehicle: saline with Tween-80 99 % of control

c1cnc(NC(Nc2cnccn2)C2CCCCC2)cn1
inactive: dose: 60.0 mg/kg/injection, schedule: Q01DX005 (ip), vehicle: Klucel (hydroxypropylcellulose) (HPC) 96 % of control | dose: 120.0 mg/kg/injection, schedule: Q01DX005 (ip), vehicle: Klucel (hydroxypropylcellulose) (HPC) 100 % of control | dose: 240.0 mg/kg/injection, schedule: Q01DX005 (ip), vehicle: Klucel (hydroxypropylcellulose) (HPC) 107 % of control

COCC1(C)CCCC2(C)C3=C(CC=C(OC)C3)CCC12 (stereo not given)
inactive: dose: 100.0 mg/kg/injection, schedule: Q01DX001 (ip), vehicle: Klucel (hydroxypropylcellulose) (HPC) 102 % of control | dose: 200.0 mg/kg/injection, schedule: Q01DX001 (ip), vehicle: Klucel (hydroxypropylcellulose) (HPC) 94 % of control | dose: 400.0 mg/kg/injection, schedule: Q01DX001 (ip), vehicle: Klucel (hydroxypropylcellulose) (HPC) 90 % of control

CC(=O)O[C@H]1C2c3c(ccc4c(=O)cc(-c5ccccc5)oc34)OC2OC1(C)C (stereo not given in full)
inactive: dose: 0.4 mg/kg/injection, schedule: Q01DX005 (ip), vehicle: Klucel (hydroxypropylcellulose) (HPC) 97 % of control | dose: 0.8 mg/kg/injection, schedule: Q01DX005 (ip), vehicle: Klucel (hydroxypropylcellulose) (HPC) 92 % of control | dose: 1.6 mg/kg/injection, schedule: Q01DX005 (ip), vehicle: Klucel (hydroxypropylcellulose) (HPC) 97 % of control | dose: 3.2 mg/kg/injection, schedule: Q01DX005 (ip), vehicle: Klucel (hydroxypropylcellulose) (HPC) 98 % of control

CCC12CCCN3CCC4(c5ccc(OC)cc5N(C)C4C(O)(OC(C)=O)C1OC(C)O)C32 (stereo not given)
inactive: dose: 50.0 mg/kg/injection, schedule: Q01DX005 (ip), vehicle: saline with Tween-80 100 % of control | dose: 100.0 mg/kg/injection, schedule: Q01DX005 (ip), vehicle: saline with Tween-80 87 % of control

CC12CC3CC(O)(C1)CC(O)(C3)C2
inactive: dose: 50.0 mg/kg/injection, schedule: Q01DX009 (ip), vehicle: saline 100 % of control | dose: 100.0 mg/kg/injection, schedule: Q01DX009 (ip), vehicle: saline 100 % of control | dose: 200.0 mg/kg/injection, schedule: Q01DX009 (ip), vehicle: saline 102 % of control

CC(=O)OCC(Cn1ccnc1[N+](=O)[O-])OC(C)=O (stereo not given)
inactive: dose: 12.5 mg/kg/injection, schedule: Q01DX009 (ip), vehicle: distilled water + Tween-80 100 % of control | dose: 25.0 mg/kg/injection, schedule: Q01DX009 (ip), vehicle: distilled water + Tween-80 101 % of control | dose: 50.0 mg/kg/injection, schedule: Q01DX009 (ip), vehicle: distilled water + Tween-80 100 % of control | dose: 100.0 mg/kg/injection, schedule: Q01DX009 (ip), vehicle: distilled water + Tween-80 111 % of control | dose: 200.0 mg/kg/injection, schedule: Q01DX009 (ip), vehicle: distilled water + Tween-80 108 % of control

CC(C)N(CCO)CC(O)Cn1cnc2ncnc(N)c21 (stereo not given)
inactive: dose: 60.0 mg/kg/injection, schedule: Q01DX005 (ip), vehicle: saline 94 % of control | dose: 120.0 mg/kg/injection, schedule: Q01DX005 (ip), vehicle: saline 97 % of control | dose: 240.0 mg/kg/injection, schedule: Q01DX005 (ip), vehicle: saline 94 % of control

O=C(/C=C/c1c(-c2ccccc2)[nH]c2ccccc12)c1cccc([N+](=O)[O-])c1
inactive: dose: 60.0 mg/kg/injection, schedule: Q01DX005 (ip), vehicle: saline with Tween-80 98 % of control | dose: 120.0 mg/kg/injection, schedule: Q01DX005 (ip), vehicle: saline with Tween-80 90 % of control | dose: 240.0 mg/kg/injection, schedule: Q01DX005 (ip), vehicle: saline with Tween-80 90 % of control
